Legend:
Format in all cases: cell-based, human
[1] = tested on: ovarian surface epithelium (OSE) cells; experiment: MMC/DEB-induced chromosomal breakage and radial formation in primary ovarian epithelial cell cultures; details: 40 ng/ml MMC or 200 ng/ml DEB, 48 hours
Experimental: (§1) The ovarian cells were scraped from the ovarian surface and enzymatically disaggregated with Collagenase I (GIBCO-Invitrogen, Grand Island, N.Y.) for 4 hours. The cells were washed in RPMI 1640 medium (GIBCO-Invitrogen) and plated in 25 cm^2 flasks coated with collagen in RPMI 1640 supplemented with 20% FCS (Hyclone, Logan, Utah), 10 μg/ml insulin (Sigma, St. Louis, Mo.) and 10 ng/ml EGF (R&D Systems, Minneapolis, Minn.). Studies were performed on primary cells and immortalized cells. Ovarian cells were immortalized by transduction with a retrovirus expressing SV40 large T-antigen obtained from cell line Ψ-2/U195 (Saito et al., Mutat. Res. 294:255-62, 1993; Williams et al., Mol. Cell Bio. 8:3864-71, 1988). SV40-transformed ovarian epithelial cells were transduced with pMMP retroviral vectors containing full-length FANCD2 cDNA produced from the AM12/RVD2 cell line (Naf et al., Mol. Cell Biol. 18:5952-60, 1998; Kuang et al., Blood 96:1625-32, 2000).
(§2) These cultures were then harvested after a 2 hour exposure to 0.25 μg/ml Colcemid (Sigma). Following a 10 minute treatment with hypotonic solution (0.075 M KCl, 5% fetal calf serum) the cells were fixed with a 3:1 mixture of methanol:acetic acid. Slides were stained with Wright's stain, and breaks and radial formation was assessed by counting the number of breaks and radials in a representative number of cells.

[2] = tested on: SV40-transformed OV-CA4 ovarian epithelial cells; experiment: MMC/DEB-induced radial formation, SV40-transformed OV-CA4 cells with and without FANCD2 complementation (FIG. 4B); details: 40 ng/ml MMC or 200 ng/mL DEB, 48 hours, 50 metaphases
Experimental: as §1, §2

[3] = tested on: SV40-transformed OV-HR2 ovarian epithelial cells; experiment: MMC/DEB-induced radial formation, SV40-transformed OV-HR2 cells with and without FANCD2 complementation (FIG. 4B); details: 40 ng/ml MMC or 200 ng/mL DEB, 48 hours, 50 metaphases
Experimental: as §1, §2

[4] = tested on: peripheral blood mono-lymphocytes (PBML); experiment: MMC/DEB-induced chromosomal breakage and radial formation in PHA-stimulated peripheral blood lymphocytes;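 note: 40 ng/mL MMC and 200 ng/mL DEB for 48 hours at 37 °C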
Experimental: Peripheral blood was obtained from all subjects.
as §2

[5] = OV-CA4, FANCD2-complemented (retroviral FANCD2 cDNA)
[6] = OV-CA4, FANCD2-deficient (before FANCD2 expression)
[7] = OV-HR2, FANCD2-complemented (retroviral FANCD2 cDNA)
[8] = OV-HR2, FANCD2-deficient (before FANCD2 expression)
[9] = lymphocytes of case OV-CA 1 (carcinoma)
[10] = lymphocytes of case OV-CA 2 (carcinoma)
[11] = lymphocytes of case OV-CA 3 (carcinoma)
[12] = lymphocytes of case OV-CA 4 (carcinoma)
[13] = lymphocytes of case OV-CA 5 (carcinoma)
[14] = lymphocytes of case OV-CA 6 (carcinoma)
[15] = lymphocytes of case OV-CA 7 (carcinoma)
[16] = lymphocytes of case OV-CA 8 (carcinoma)
[17] = lymphocytes of case OV-HR 1 (high-risk)
[18] = lymphocytes of case OV-HR 2 (high-risk)
[19] = lymphocytes of case OV-HR 3 (high-risk)
[20] = lymphocytes of case OV-HR 4 L (high-risk)
[21] = lymphocytes of case OV-HR 5 L (high-risk)
[22] = lymphocytes of case OV-HR 5 R (high-risk)
[23] = lymphocytes of case OV-NL 3 (normal)
[24] = lymphocytes of case OV-NL 9 L (normal)
[25] = lymphocytes of case OV-NL 9 R (normal)

C1OC1C1CO1 (stereo not shown) [DEB, Diepoxybutane]
Radials (%) OSE MMC/DEB ([1]; case OV-CA 1 (carcinoma)): 16% | Radials (%) OSE MMC/DEB ([1]; case OV-CA 2 (carcinoma)): 10% | Radials (%) OSE MMC/DEB ([1]; case OV-CA 3 (carcinoma)): 14% | Radials (%) OSE MMC/DEB ([1]; case OV-CA 4 (carcinoma)): 48% | Radials (%) OSE MMC/DEB ([1]; case OV-CA 5 (carcinoma)): 2% | Radials (%) OSE MMC/DEB ([1]; case OV-HR 1 (high-risk)): 14% | Radials (%) OSE MMC/DEB ([1]; case OV-HR 2 (high-risk)): 64% | Radials (%) OSE MMC/DEB ([1]; case OV-HR 3 (high-risk)): 55% | Radials (%) OSE MMC/DEB ([1]; case OV-HR 4 L (high-risk)): 50% | Radials (%) OSE MMC/DEB ([1]; case OV-HR 5 L (high-risk)): 20% | Radials (%) OSE MMC/DEB ([1]; case OV-HR 5 R (high-risk)): 12% | Radials (%) OSE MMC/DEB ([1]; case OV-NL 1 (normal)): 0/0% | Radials (%) OSE MMC/DEB ([1]; case OV-NL 2 (normal)): 0/0% | Radials (%) OSE MMC/DEB ([1]; case OV-NL 3 (normal)): 0% | Radials (%) OSE MMC/DEB ([1]; case OV-NL 4 (normal)): 1% | Radials (%) OSE MMC/DEB ([1]; case OV-NL 5 (normal)): 1/1% | Radials (%) OSE MMC/DEB ([1]; case OV-NL 6 L (normal)): 0/0% | Radials (%) OSE MMC/DEB ([1]; case OV-NL 6 R (normal)): 0/0% | Radials (%) OSE MMC/DEB ([1]; case OV-NL 7 (normal)): 2% | Radials (%) OSE MMC/DEB ([1]; case OV-NL 8 (normal)): 3/3% | Radials (%) OSE MMC/DEB ([1]; case OV-NL 9 L (normal)): 0/0% | Radials (%) OSE MMC/DEB ([1]; case OV-NL 9 R (normal)): 0/0% | fraction of MMC- and DEB-exposed cells with radial forms [2, 5]: 20% | fraction of MMC- and DEB-exposed cells with radial forms [2, 6]: 48% | fraction of MMC- and DEB-exposed cells with radial forms [3, 7]: 10% | fraction of MMC- and DEB-exposed cells with radial forms [3, 8]: 30% | Radials (%) PBML MMC/DEB [4, 9]: 0% | Radials (%) PBML MMC/DEB [4, 10]: 0% | Radials (%) PBML MMC/DEB [4, 11]: 1/1% | Radials (%) PBML MMC/DEB [4, 12]: 2% | Radials (%) PBML MMC/DEB [4, 13]: 0% | Radials (%) PBML MMC/DEB [4, 14]: 1/1% | Radials (%) PBML MMC/DEB [4, 15]: 1% | Radials (%) PBML MMC/DEB [4, 16]: 1% | Radials (%) PBML MMC/DEB [4, 17]: 0/0% | Radials (%) PBML MMC/DEB [4, 18]: 0/0% | Radials (%) PBML MMC/DEB [4, 19]: 0% | Radials (%) PBML MMC/DEB [4, 20]: 0/0% | Radials (%) PBML MMC/DEB [4, 21]: 1% | Radials (%) PBML MMC/DEB [4, 22]: 0/0% | Radials (%) PBML MMC/DEB [4, 23]: 0/0% | Radials (%) PBML MMC/DEB [4, 24]: 0/0% | Radials (%) PBML MMC/DEB [4, 25]: 0/0%

CO[C@@]12[C@H](COC(N)=O)C3=C(C(=O)C(C)=C(N)C3=O)N1C[C@@H]1N[C@@H]12 [MMC, Mitomycin C]
Radials (%) OSE MMC/DEB ([1]; case OV-CA 1 (carcinoma)): 14% | Radials (%) OSE MMC/DEB ([1]; case OV-CA 2 (carcinoma)): 12% | Radials (%) OSE MMC/DEB ([1]; case OV-CA 3 (carcinoma)): 16% | Radials (%) OSE MMC/DEB ([1]; case OV-CA 4 (carcinoma)): 70% | Radials (%) OSE MMC/DEB ([1]; case OV-CA 5 (carcinoma)): 12% | Radials (%) OSE MMC/DEB ([1]; case OV-CA 6 (carcinoma)): 66/N.D. % | Radials (%) OSE MMC/DEB ([1]; case OV-CA 7 (carcinoma)): 0/N.D. % | Radials (%) OSE MMC/DEB ([1]; case OV-CA 8 (carcinoma)): 33/N.D. % | Radials (%) OSE MMC/DEB ([1]; case OV-HR 1 (high-risk)): 10% | Radials (%) OSE MMC/DEB ([1]; case OV-HR 2 (high-risk)): 50% | Radials (%) OSE MMC/DEB ([1]; case OV-HR 3 (high-risk)): 64% | Radials (%) OSE MMC/DEB ([1]; case OV-HR 4 L (high-risk)): 66% | Radials (%) OSE MMC/DEB ([1]; case OV-HR 5 L (high-risk)): 47% | Radials (%) OSE MMC/DEB ([1]; case OV-HR 5 R (high-risk)): 30% | Radials (%) OSE MMC/DEB ([1]; case OV-NL 1 (normal)): 0/0% | Radials (%) OSE MMC/DEB ([1]; case OV-NL 2 (normal)): 0/0% | Radials (%) OSE MMC/DEB ([1]; case OV-NL 3 (normal)): 2% | Radials (%) OSE MMC/DEB ([1]; case OV-NL 4 (normal)): 4% | Radials (%) OSE MMC/DEB ([1]; case OV-NL 5 (normal)): 1/1% | Radials (%) OSE MMC/DEB ([1]; case OV-NL 6 L (normal)): 0/0% | Radials (%) OSE MMC/DEB ([1]; case OV-NL 6 R (normal)): 0/0% | Radials (%) OSE MMC/DEB ([1]; case OV-NL 7 (normal)): 1% | Radials (%) OSE MMC/DEB ([1]; case OV-NL 8 (normal)): 3/3% | Radials (%) OSE MMC/DEB ([1]; case OV-NL 9 L (normal)): 0/0% | Radials (%) OSE MMC/DEB ([1]; case OV-NL 9 R (normal)): 0/0% | fraction of MMC- and DEB-exposed cells with radial forms [2, 5]: 56% | fraction of MMC- and DEB-exposed cells with radial forms [2, 6]: 70% | fraction of MMC- and DEB-exposed cells with radial forms [3, 7]: 32% | fraction of MMC- and DEB-exposed cells with radial forms [3, 8]: 60% | Radials (%) PBML MMC/DEB [4, 9]: 2% | Radials (%) PBML MMC/DEB [4, 10]: 1% | Radials (%) PBML MMC/DEB [4, 11]: 1/1% | Radials (%) PBML MMC/DEB [4, 12]: 4% | Radials (%) PBML MMC/DEB [4, 13]: 2% | Radials (%) PBML MMC/DEB [4, 14]: 1/1% | Radials (%) PBML MMC/DEB [4, 15]: 0% | Radials (%) PBML MMC/DEB [4, 16]: 3% | Radials (%) PBML MMC/DEB [4, 17]: 0/0% | Radials (%) PBML MMC/DEB [4, 18]: 0/0% | Radials (%) PBML MMC/DEB [4, 19]: 1% | Radials (%) PBML MMC/DEB [4, 20]: 0/0% | Radials (%) PBML MMC/DEB [4, 21]: 0% | Radials (%) PBML MMC/DEB [4, 22]: 0/0% | Radials (%) PBML MMC/DEB [4, 23]: 0/0% | Radials (%) PBML MMC/DEB ([4]; lymphocytes of case OV-NL 6 L (normal)): 0/N.D. % | Radials (%) PBML MMC/DEB ([4]; lymphocytes of case OV-NL 6 R (normal)): 0/N.D. % | Radials (%) PBML MMC/DEB [4, 24]: 0/0% | Radials (%) PBML MMC/DEB [4, 25]: 0/0%
